Results published in patent US12004506B2, “Pharmaceutical composition comprising a cyclic peptide of formula X1-[sequence]-X2 and use for extracorporeal lung treatment” (priority 2013, dated 2024).
Where two headings read alike, the source gives them in different places. Bridges are numbered along the chain shown (N, C = ends). Where no end group is shown, it is not given here.

Tests used:
[1] = test system: sodium ion current in A549 cells (deglycosylated cell surface); assay: Patch clamp assay, whole cell mode, on A549 cells deglycosylated with PNGase F; type: cell-based, human; conditions: 240 nM peptide, Eh -100 mV; for Whole cell current, pre-treatment with PNGase F: A549
Protocol: In whole cell mode experiments as described above, A549 cells were incubated with “PNGase enzyme F” (Peptide-N^4-(N-acetyl-β-D-glucosaminyl)asparagine amidase F) 100 units for 1-5 minutes immediately prior to the patch clamp measurements and glass cover slips with the cultured cells were rinsed with external solution before being transferred to the chamber of the 1 mL bath.
The results of the deglycosylation experiments using the patch clamp assay in whole cell mode are presented in Table IV, wherein the effect of deglycosylation of A549 cells on activation of sodium ion current by peptides of SEQ ID NO:1 to SEQ ID NO:7 is indicated. Whole cell currents were recorded at Eh=−100 mV.

[2] = test system: sodium ion current in A549 cell line; conditions: for activity on sodium ion current (in words): A549, patch clamp
Protocol: Experiments were carried out on the human epithelial cell line A549 (ATTAC Nr. CCL-185) in passages 80-90. Cells were grown in Dulbecco's modified Eagle's medium/nutrient mixture F12 Ham, supplemented with 10% fetal bovine serum and containing 1% penicillin-streptomycin. All culture media were purchased from Sigma-Aldrich GmbH (St. Louis, MO).
Currents were recorded with the patch clamp method in the whole-cell mode. Glass cover slips with the cultured cells were transferred to a chamber of 1 ml capacity, mounted on the stage of an inverted microscope (Zeiss, Axiovert 100). The chamber contained 1 ml of the bath solution of the following composition (in mM): 145 NaCl, 2.7 KCl, 1.8 CaCl2), 2 MgCl2, 5.5 glucose and 10 HEPES, adjusted to pH 7.4 with 1 M NaOH solution. Micropipettes were pulled from thin-walled borosilicate glass capillaries (World Precision Instruments, Inc., FL, USA) with a Flaming Brown micropipette puller (P87, Sutter Instruments, CA, USA) and polished on a microforge (Narishige, Tokyo, Japan) to obtain electrode resistances ranging from 2.0 to 3.5 MΩ. […] Chemicals for pipette and bathing solutions were supplied by Sigma-Aldrich (Vienna, Austria). Electrophysiological measurements were carried out with an Axopatch 200B patch clamp amplifier (Axon Instruments, CA, USA). Capacity transients were cancelled, and series resistance was compensated. Whole cell currents were filtered at 5 kHz and sampled at 10 KHz. Data acquisition and storage were processed directly to a PC equipped with pCLAMP 10.0 software (Axon Instruments, CA, USA).
After GΩ-seal formation, the equilibration period of 5 min was followed by control recordings at holding potentials (Eh) between −100 and +100 mV in 20 mV increments for 1 min at each Eh. […] The wash-in phase lasted about 1 min. […] Concentration-response curves and EC50-values were fitted and estimated for currents recorded at Eh of −100 mV with SigmaPlot 9.0. […] Subsequent addition of 10 mM tetraethylammonium chloride (TEA) indicated whether any observed increases in the current were due to potassium current. […]

[3] = test system: non-ischemic pig donor lung; assay: Ex vivo lung perfusion (EVLP) of non-ischemic pig donor lungs, inhalative application; conditions: pulmonary application
Protocol: Brain death pigs were turned into dorsal position, and a longitudinal sternotomy was performed. The pericardium and both pleural cavities were opened. […] An inflow catheter was placed in the pulmonary artery through a purse-string on the right ventricular outflow tract.
The lungs (non-ischemic) were then preserved with an ante grade flush of cold isotonic preservation solution (50 ml per kg body weigh of pig, containing potassium ions, sodium ions, magnesium ions, calcium ions, chloride ions, dextran, glucose, buffering ions) through the inflow catheter. Incision of the left auricular appendix provides outflow. The lungs were ventilated during this period with 50% oxygen, and iced slush were placed in both pleural cavities and mediastinum.
The explanation technique was en bloc harvesting with heart and esophagus according to the following steps: • a) Dissection of soft tissue bridges to the thoracic cavity on both sides of the trachea. • b) Transsection of both pulmonal ligaments (very deep, difficult exposure), then of the VCI, the lower thoracic descendent aorta and the esophagus, respectively. • c) Blunt separation from remaining mediastinal adhesions. • d) Complete inflation of the donor lung prior of tracheal closure with a stapler.
After explantation, the lungs were wrapped in gauze, placed in an insulated ice bag filled with low-potassium dextran extracellular solution, and stored at 4° C. for 18 to 24 hours. A temperature probe was submerged in the container, which will be placed in a refrigerator.
For ex-vivo lung conditioning, the EVLP technique ([…]) was used. In the EVLP technique, donor lungs are placed into a circuit composed of a pump, ventilator and filters. EVLP technique, the temperature may increased up to 37 °C. In the EVLP, a ventilator is used to deliver oxygen to the lungs. The pump is used to perfuse the lungs with an extracellular solution containing human albumin and nutrition. During EVLP, the lung function can be evaluated regularly on key indicators. […]

[4] = test system: sodium ion current in A549 cells (deglycosylated cell surface); assay: Patch clamp assay, whole cell mode, on A549 cells deglycosylated with PNGase F; type: cell-based, human; conditions: 240 nM peptide, Eh -100 mV

Compound	Whole cell current, pre-treatment with PNGase F [1]	further results
C[C@@H]1NC(=O)CNC(=O)[C@H](CCC(=O)O)NC(=O)[C@@H]2CCCN2C(=O)[C@H]([C@@H](C)O)NC(=O)[C@H](CCC(=O)O)NC(=O)[C@H](CCCNC(=N)N)NC(=O)[C@H](CCC(N)=O)NC(=O)CNC(=O)[C@@H]2CCCN2C(=O)[C@H](CO)NC(=O)[C@@H](N)CCCCNC(=O)CC[C@@H](C(=O)O)NC(=O)[C@H](Cc2ccc(O)cc2)NC(=O)[C@H](Cc2c[nH]c3ccccc23)NC(=O)[C@@H]2CCCN2C(=O)[C@H](CCCCN)NC(=O)[C@H](C)NC(=O)[C@H](CCC(=O)O)NC1=O [SEQ ID NO: 2]	21.3 pA (n = 3)	–
C[C@@H]1NC(=O)CNC(=O)[C@H](CCC(=O)O)NC(=O)[C@@H]2CCCN2C(=O)[C@H]([C@@H](C)O)NC(=O)[C@H](CCC(=O)O)NC(=O)[C@H](CCCNC(=N)N)NC(=O)[C@H](CCC(N)=O)NC(=O)CNC(=O)[C@@H](N)CCCCNC(=O)CNC(=O)[C@H](Cc2ccc(O)cc2)NC(=O)[C@H](Cc2c[nH]c3ccccc23)NC(=O)[C@@H]2CCCN2C(=O)[C@H](CCCCN)NC(=O)[C@H](C)NC(=O)[C@H](CCC(=O)O)NC1=O [SEQ ID NO: 3]	20.6 pA (n = 3)	–
C[C@@H]1NC(=O)CNC(=O)[C@H](CCC(=O)O)NC(=O)[C@@H]2CCCN2C(=O)[C@H]([C@@H](C)O)NC(=O)[C@H](CCC(=O)O)NC(=O)[C@H](CCCNC(=N)N)NC(=O)[C@H](CCC(N)=O)NC(=O)CNC(=O)[C@@H](N)CCCNC(=O)CNC(=O)[C@H](Cc2ccc(O)cc2)NC(=O)[C@H](Cc2c[nH]c3ccccc23)NC(=O)[C@@H]2CCCN2C(=O)[C@H](CCCCN)NC(=O)[C@H](C)NC(=O)[C@H](CCC(=O)O)NC1=O [SEQ ID NO: 4]	22.5 pA (n = 3)	–
C[C@@H]1NC(=O)CNC(=O)[C@H](CCC(=O)O)NC(=O)[C@@H]2CCCN2C(=O)[C@H]([C@@H](C)O)NC(=O)[C@H](CCC(=O)O)NC(=O)[C@H](CCCNC(=N)N)NC(=O)[C@H](CCC(N)=O)NC(=O)CNC(=O)CCCNC(=O)C[C@@H](C(=O)O)NC(=O)[C@H](Cc2ccc(O)cc2)NC(=O)[C@H](Cc2c[nH]c3ccccc23)NC(=O)[C@@H]2CCCN2C(=O)[C@H](CCCCN)NC(=O)[C@H](C)NC(=O)[C@H](CCC(=O)O)NC1=O [SEQ ID NO: 5]	22.4 pA (n = 3)	–
C[C@@H]1NC(=O)CNC(=O)[C@H](CCC(=O)O)NC(=O)[C@@H]2CCCN2C(=O)[C@H]([C@@H](C)O)NC(=O)[C@H](CCC(=O)O)NC(=O)[C@H](CCCNC(=N)N)NC(=O)[C@H](CCC(N)=O)NC(=O)CNC(=O)CCNC(=O)CC[C@@H](C(=O)O)NC(=O)[C@H](Cc2ccc(O)cc2)NC(=O)[C@H](Cc2c[nH]c3ccccc23)NC(=O)[C@@H]2CCCN2C(=O)[C@H](CCCCN)NC(=O)[C@H](C)NC(=O)[C@H](CCC(=O)O)NC1=O [SEQ ID NO: 6]	19.9 pA (n = 3)	–
Cyclo(CGQREAPAGAAAKPWYC) (disulfide 1-17) [SEQ ID NO: 7, reference compound]	no avtivity	activity on sodium ion current (in words) [2]: no activity; activity on sodium ion current (in words) ([2]; listed as SEQ ID NO:7): did not show activity; EC50 (nM) on cellular sodium ion current ([2]; A549, whole cell recording, Eh -100 mV): no activity; activity in deglycosylation experiments (in words) [1]: no activity; effects on lung function [3]: did not provide improving effects; Whole cell current, no pre-treatment with PNGase F [4]: no activity
